From article PMC8715119, “Second-generation non-hematopoietic erythropoietin-derived peptide for neuroprotection” (Redox Biology, 2021)

Experiments:
HT-22 cells [1] = test: TUNEL assay after hypoxia and re-oxygenation; assay type: cell-based, mouse; settings: hypoxia 18 h, re-oxygenation 3 h; reEPO 0.5 IU/ml, ML1-h3 1 ng/ml; n = 5
Description: (§1) HT-22 cells (kindly provided by Prof. Gil-Saeng Jeong in Keimyung University), an immortalized mouse hippocampal cell line, were cultured at 37°C and 5% CO2 in Dulbecco's modified eagle medium (DMEM, Invitrogen, USA) supplemented with 10% FBS and 1% penicillin/streptomycin at 37°C and 5% CO2.
The HT-22 cells were seeded onto 96-well or 6-well plates. The next day, HT-22 cells were placed inside a sealed air-tight container consisting of an anaeropack (Mitsubishi Gas Company, Tokyo, Japan), which can induce a hypoxic atmosphere by absorbing oxygen and generating carbon dioxide. The cells were maintained in the hypoxic condition at 37°C for 18 h and re-oxygenated for 3 h at 37°C and 5% CO2. Subsequently, the cells were treated with reEPO or the peptides for 19 h before viability analysis.
We fixed the cells with 4% paraformaldehyde in PBS on a slide at 25°C, washed them with PBS, and then treated them with 3% H2O2 in methanol for 10 min. After washing with PBS, we treated the cells with 0.1% sodium citrate in 0.1% Triton X-100 on sample slides for 2 min on ice and washed again with PBS. Subsequently, we treated the cells with the TUNEL reaction mixture for 60 min at 37°C in the dark. After washing thrice with PBS, 50 μl of TUNEL peroxidase (POD) was added to the slides for 30 min at 37°C in the dark. […]

HT-22 cells [2] = test: Cell viability after hypoxia and re-oxygenation; assay type: cell-based, mouse; settings: hypoxia 18 h, re-oxygenation 3 h, treatment 19 h; reEPO 0.5 IU/ml, ML1-h3 1 ng/ml; n = 12
Description: as §1
(§2) Cell viability was evaluated by 3-[(4,5-dimethylthiazol-2-yl)-5,3-carboxymethoxyphenyl]-2-(4-sulfophenyl)-2H tetrazolium, inner salt (MTS) reduction assay (CellTiter 96 Aqueous One Solution Cell Proliferation Assay, Promega, Madison, WI, USA). Briefly, differentiated neuronal-PC12 cells were treated with H2O2 (300 μM) with or without reEPO and peptides for 24 h. The PC12 cells were washed with PBS; 20 ul MTS solution was added to each well with 100 μl PBS, and the cells were incubated for 3 h at 37°C and 5% CO2. The intracellular soluble formazan produced by cellular reduction of the MTS was determined by recording the absorbance at 490 nm using a microplate reader (VersaMax, Molecular Devices, USA). Cell proliferation was also evaluated by the MTS assay. Undifferentiated PC12 cells were seeded into a 96-well plate (5x10^4 cells/well). The next day, the initial cell number was counted; after 48 h, under low FBS concentration (0.5%), with or without reEPO and peptides, cell number was measured by the MTS assay.
The HT-22 cells were seeded onto 96-well or 6-well plates. […]

[3] = test system: undifferentiated PC12 cells; test: Cell proliferation (MTS) under low serum; assay type: cell-based, rat; settings: 0.5% fetal bovine serum, 48 h, reEPO 10 IU/ml, peptides 10 ng/ml, n = 5, Fig. 4c
Description: PC12 cells (#CRL-1721, ATCC, USA), a rat pheochromocytoma cell line derived from the adrenal medulla (#CRL-1721, ATCC, USA), were seeded on a dish, which was coated by poly L-lysine (0.01%; Sigma Chemical Co., USA), and grown in RPMI 1640 medium (#11875093, Gibco, USA), supplemented with 10% heat-inactivated horse serum (#26050088, Gibco, USA), 5% fetal bovine serum (FBS) (#SH30919.03, Hyclone, USA), and 1% penicillin/streptomycin at 37°C with 5% CO2. […]
as §2, with “Briefly, differentiated neuronal-PC12 cells were treated with H2O2 (300 μM) with or without reEPO and peptides for 24 h. The PC12 cells were washed with PBS; 20 ul MTS solution was added to each well with 100 μl PBS, and the cells were incubated for 3 h at 37°C and 5% CO2.” left out, “Undifferentiated PC12 cells were seeded into a 96-well plate (5x10^4 cells/well).” left out

EPOR = test: Time-series immunoblot of EPOR protein level; assay type: cell-based, rat; settings: PC12 cells; 1 nM; normalized by β-Actin; n = 3
Description: PC12 or HT-22 cells were lysed in 100 mM Tris-Cl (pH 6.8) with 4% SDS. The lysates were loaded onto sodium dodecyl sulfate-polyacrylamide gel electrophoresis (SDS-PAGE) (8–10%), and the proteins were transferred onto the nitrocellulose membrane. The membrane was blocked with 0.1% TBST and 5% non-fat dry milk at 25°C for 30 min. Primary antibodies were diluted in 0.1% TBST and 3% bovine serum albumin (BSA). The primary antibodies included anti-pJAK2 (#3776, Cell Signaling Technology, USA), anti-JAK2 (#3230, Cell Signaling Technology, USA), anti-pSTAT5 (#9351, Cell Signaling Technology, USA), anti-STAT5 ([…], Cell Signaling Technology, USA), anti-pAKT (#9271, Cell Signaling Technology, USA), anti-AKT (#9272, Cell Signaling Technology, USA), anti-pERK (#9101, Cell Signaling Technology, USA) anti-ERK (#9102, Cell Signaling Technology, USA), anti-EPOR (#sc-365662, Santa Cruz Biotechnology, USA), anti-β-Actin (Santa Cruz Biotechnology, USA), anti-Bax (Santa Cruz Biotechnology, USA), anti-cleaved Casp3 (Cell Signaling Technology, USA), and anti-cleaved Parp1 (Cell Signaling Technology, USA).

[4] = test system: differentiated neuronal PC12 cells; test: Cell viability (MTS) under H2O2-induced oxidative stress; assay type: cell-based, rat; settings: H2O2 for 24 h; reEPO 0.5 IU/ml, ML1 1 ng/ml or ML1 analogs; n = 5; Fig. 4a
Description: PC12 cells (#CRL-1721, ATCC, USA), a rat pheochromocytoma cell line derived from the adrenal medulla (#CRL-1721, ATCC, USA), were seeded on a dish, which was coated by poly L-lysine (0.01%; Sigma Chemical Co., USA), and grown in RPMI 1640 medium (#11875093, Gibco, USA), supplemented with 10% heat-inactivated horse serum (#26050088, Gibco, USA), 5% fetal bovine serum (FBS) (#SH30919.03, Hyclone, USA), and 1% penicillin/streptomycin at 37°C with 5% CO2. For neuronal differentiation, PC12 cells were plated at a density of 1.25x10^3 cell/cm^2 into 96-well plates coated with collagen 1 (#354236, BD Biosciences, USA) and grown in RPMI 1640 medium supplemented with 50 ng/ml nerve growth factor (NGF) (BD Biosciences, USA) and 0.5% FBS for 10 days. The NGF-supplemented media was replaced with fresh media every 3 days during neuronal differentiation.
as §2

For “reEPO: Recombinant human EPO (Epoetin-α, CJ HealthCare Corporation)”, the “TUNEL-positive cells under H/R” value (HT-22 cells [1]) was “dramatically decreased the TUNEL-positive cells”, the “Cell viability under H/R” value (HT-22 cells [2]) was “suppressed the loss of cell viability” and the “Cell proliferation (cell number)” value [3] was “significantly increased the proliferation”. For the same substance, the “Level of EPOR protein over time” value (EPOR) was “gradually decreased by reEPO for 15–45 min, and subsequently, it rapidly recovered to the basal level at 60 min” and the “Cell death under H2O2-induced oxidative stress (cell viability)” value [4] was “significantly suppressed the cell death”.
